Patent publication US11345702B1 (Myoforte Therapeutics, Inc., priority 2020, dated 2022)
≈ marks a conversion by molar mass, not a printed value. Like-named read-outs stand apart in the source and are kept apart here.

Key:
[1] = Liver microsome stability assay (HLM); type: in vitro ADME; details: human liver microsomes
Experimental: (§1) A microsomal mixture (microsomes and Kphos buffer) was prepared at a concentration of 1.428 mg/mL in 2 mL tubes. To this microsomal mixture 1.6 μL (1 mM) of test compound and positive control were spiked; from this mixture, 70 μL was transferred to 96 well plate and pre-incubated at 37° C. for 5 min. After pre-incubation, the zero minute time point reaction was stopped using 100 μL of ice-cold acetonitrile containing internal standard and […] (3.33 mM in Kphos buffer) was added. The 45 minute time point reaction was initiated by addition of 30 μL of NADPH (3.33 mM in Kphos buffer) and incubated at 37° C. for 15 and 45 min. Reactions without NADPH and buffer controls (minus NADPH) at 0, 15, and 45 minutes were also incubated to rule out non-NADPH metabolism or chemical instability in the incubation buffer. Incubation reactions were stopped with 100 μL of ice-cold acetonitrile containing internal standard. The plates were centrifuged at 4000 RPM for 15 min and 100 μL aliquots were submitted for analysis by LC-MS/MS. (Verapamil in human liver microsomes (HLM) and rat liver microsomes (RLM) was used as positive controls. Imipramine in mouse liver microsomes (MLM) was used as a positive control.) Samples were monitored for parent compound disappearance in MRM mode (multiple reaction monitoring) using LC-MS/MS. The peak area ratios of analyte versus internal standard were used to calculate the % remaining at the end of 45 minutes in the presence of NADPH.

[2] = Liver microsome stability assay (RLM); type: in vitro ADME; details: rat liver microsomes
Experimental: as §1

15-PGDH/HPGD = 15-PGDH/HPGD (Homo sapiens (Human), UniProt P15428); experiment: hPGDH inhibitor screening biochemical assay
15-PGDH/HPGD, sequence (P15428 whole entry): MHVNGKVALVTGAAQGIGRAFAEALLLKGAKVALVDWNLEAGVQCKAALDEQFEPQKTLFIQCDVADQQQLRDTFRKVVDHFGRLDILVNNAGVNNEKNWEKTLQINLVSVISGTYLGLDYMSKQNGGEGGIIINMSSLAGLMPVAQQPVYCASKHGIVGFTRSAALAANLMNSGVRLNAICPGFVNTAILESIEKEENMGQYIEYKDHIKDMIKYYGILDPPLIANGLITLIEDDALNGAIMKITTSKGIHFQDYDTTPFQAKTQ
Summary of the method: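 Recombinant human 15-PGDH (10 nM) pre-incubated with compounds 10 min at 37 °C, then 15 μM PGE2 and 0.25 mM NAD+ added for 10 min at room temperature in 50 mM Tris-HCl pH 7.5, 0.01% Tween 20. NADH fluorescence read at ex/em 340/485 nm. IC50 from 10-point curves, four-parameter fit versus 1% DMSO.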

Solubility at pH 7.4 = type: physicochemical
[3] = Liver microsome stability assay (MLM); type: in vitro ADME; details: mouse liver microsomes
Experimental: as §1

[4] = pH 7.4, aqueous buffer, read-out: Solubility: Solubility at pH 7.4
[5] = aqueous buffer, pH 7.4, 6-5 ring core, read-out: Solubility at pH 7.4
[6] = aqueous buffer, pH 7.4, phenyl core, read-out: Solubility at pH 7.4

## O=C(c1cnc2c(c1)c(Cl)cn2-c1cnccn1)N1CCC(F)CC1 [MF-DH-124]
[1]
  HLM + NADPH (% remaining at 45 min): 48%
[2]
  RLM + NADPH (% remaining at 45 min): 34%
15-PGDH/HPGD; read-out: hPGDH: Average IC50
  IC50: < 100 nM

## COc1ccc(-n2c(CC#N)nc3cc(C(=O)N4CCC(F)CC4)cnc32)cc1 [MF-DH-130]
[1]
  HLM + NADPH (% remaining at 45 min): 68%
[2]
  RLM + NADPH (% remaining at 45 min): 74%
15-PGDH/HPGD; read-out: hPGDH: Average IC50
  IC50: 100 to 1000 nM

## Cc1cncc(-n2cc(Cl)c3cc(C(=O)N4CCC(F)CC4)cnc32)n1 [MF-DH-166, (3-chloro-1-(6-methylpyrazin-2-yl)-1H-pyrrolo[2,3-b]pyridin-5-yl)(4-fluoropiperidin-1-yl)methanone]
[1]
  HLM + NADPH (% remaining at 45 min): 47%
[2]
  RLM + NADPH (% remaining at 45 min): 33%
15-PGDH/HPGD; read-out: hPGDH: Average IC50
  IC50: < 100 nM

## Cc1ncc(-n2cc(Cl)c3cc(C(=O)N4CCC(F)CC4)cnc32)cn1 [MF-DH-169, (3-chloro-1-(2-methylpyrimidin-5-yl)-1H-pyrrolo[2,3-b]pyridin-5-yl)(4-fluoropiperidin-1-yl)methanone]
[1]
  HLM + NADPH (% remaining at 45 min): 71%
[2]
  RLM + NADPH (% remaining at 45 min): 69%
15-PGDH/HPGD; read-out: hPGDH: Average IC50
  IC50: < 100 nM

## COc1ccc(-n2nnc3cc(C(=O)N4CCC(F)CC4)ccc32)cc1 [MF-DH-242, (4-fluoropiperidin-1-yl)(1-(4-methoxyphenyl)-1H-benzo[d][1,2,3]triazol-5-yl)methanone]
[2]
  RLM + NADPH (% remaining at 45 min): 51%
15-PGDH/HPGD; read-out: hPGDH: Average IC50
  IC50: < 100 nM

## COc1ccc(-n2nnc3cc(C(=O)N4CCCCC4)ccc32)cc1 [MF-DH-243, (1-(4-methoxyphenyl)-1H-benzo[d][1,2,3]triazol-5-yl)(piperidin-1-yl)methanone]
[2]
  RLM + NADPH (% remaining at 45 min): 34%
15-PGDH/HPGD; read-out: hPGDH: Average IC50
  IC50: < 100 nM

## COc1ccc(-n2ncc3cc(C(=O)N4CCCCC4)ccc32)cc1 [MF-DH-245]
[2]
  RLM + NADPH (% remaining at 45 min): 16%
15-PGDH/HPGD; read-out: hPGDH: Average IC50
  IC50: < 100 nM

## COc1ccc(-n2nc(Cl)c3cc(C(=O)N4CCC(F)CC4)ccc32)cc1 [MF-DH-246]
[2]
  RLM + NADPH (% remaining at 45 min): 46%
15-PGDH/HPGD; read-out: hPGDH: Average IC50
  IC50: 100 to 1000 nM

## COc1ccc(-n2nc(Cl)c3cc(C(=O)N4CCCCC4)ccc32)cc1 [MF-DH-247]
[2]
  RLM + NADPH (% remaining at 45 min): 22%
15-PGDH/HPGD; read-out: hPGDH: Average IC50
  IC50: 100 to 1000 nM

## O=C(c1cnc2c(ccn2-c2ccc3c(c2)OC(F)(F)O3)c1)N1CCCCC1 [MF-DH-249]
[2]
  RLM + NADPH (% remaining at 45 min): 29%
15-PGDH/HPGD; read-out: hPGDH: Average IC50
  IC50: < 100 nM

## COCCc1nc2cc(C(=O)N3CCCCC3)cnc2n1-c1ccc(OC)cc1 [MF-DH-267]
[2]
  RLM + NADPH (% remaining at 45 min): 67%
15-PGDH/HPGD; read-out: hPGDH: Average IC50
  IC50: 100 to 1000 nM

## COc1ccc(-n2c(CCC(F)(F)F)nc3cc(C(=O)N4CCCCC4)cnc32)cc1 [MF-DH-268]
[2]
  RLM + NADPH (% remaining at 45 min): 60%
15-PGDH/HPGD; read-out: hPGDH: Average IC50
  IC50: 100 to 1000 nM

## COc1ccc(-n2ccc3c(C)c(C(=O)N4CCCCC4)cnc32)cc1 [MF-DH-287]
[2]
  RLM + NADPH (% remaining at 45 min): 44%
15-PGDH/HPGD; read-out: hPGDH: Average IC50
  IC50: < 100 nM

## O=C(c1ccc2c(cnn2-c2cncc(Cl)c2)c1)N1CCCCC1 [MF-DH-292]
Solubility at pH 7.4; [4]
  solubility: 69 µM (≈ 23.5 µg/mL)
[2]
  RLM + NADPH (% remaining at 45 min): 27%
15-PGDH/HPGD; read-out: hPGDH: Average IC50
  IC50: < 100 nM

## COc1ccc(Cn2ncc3cc(-n4ccc5cc(C(=O)N6CCCCC6)cnc54)ccc32)cc1 [MF-DH-337]
Solubility at pH 7.4; [4]
  solubility: < 5 µM
[2]
  RLM + NADPH (% remaining at 45 min): 1%
15-PGDH/HPGD; read-out: hPGDH: Average IC50
  IC50: < 100 nM

## Cc1c(C(=O)N2CCC(F)CC2)cnc2c1ccn2-c1ccc(C(N)=O)cc1 [MF-DH-380, 4-(5-(4-fluoropiperidine-1-carbonyl)-4-methyl-1H-pyrrolo[2,3-b]pyridin-1-yl)benzamide]
[3]
  MLM + NADPH (% remaining at 45 min): 89%
Solubility at pH 7.4; [4]
  solubility: 75 µM (≈ 28.5 µg/mL)
15-PGDH/HPGD; read-out: hPGDH: Average IC50
  IC50: < 100 nM

## C[C@@H]1C[C@H](C)CN(C(=O)c2cnc3c(ccn3-c3ccc(C(N)=O)cc3)c2)C1 [MF-DH-395, 4-(5-((3R,5S)-3,5-dimethylpiperidine-1-carbonyl)-1H-pyrrolo[2,3-b]pyridin-1-yl)benzamide]
[3]
  MLM + NADPH (% remaining at 45 min): 8%
Solubility at pH 7.4; [4]
  solubility: 80 µM (≈ 30.1 µg/mL)
15-PGDH/HPGD; read-out: hPGDH: Average IC50
  IC50: < 100 nM

## CC(C)NC(=O)c1ccc(-n2ccc3cc(C(=O)N4CCC(F)(F)CC4)cnc32)cc1 [MF-DH-404]
[3]
  MLM + NADPH (% remaining at 45 min): 101%
Solubility at pH 7.4; [4]
  solubility: < 5 µM
15-PGDH/HPGD; read-out: hPGDH: Average IC50
  IC50: < 100 nM

## O=C(O)c1ccc(-n2ccc3cc(C(=O)N4CCC(F)(F)CC4)cnc32)cc1 [MF-DH-424, 4-(5-(4,4-difluoropiperidine-1-carbonyl)-1H-pyrrolo[2,3-b]pyridin-1-yl)benzoic acid]
[3]
  MLM + NADPH (% remaining at 45 min): 96%
Solubility at pH 7.4; [4]
  solubility: 156 µM (≈ 60.1 µg/mL)
15-PGDH/HPGD; read-out: hPGDH: Average IC50
  IC50: < 100 nM

## O=C(c1cnc2c(ccn2-c2cncc(-c3nnn[nH]3)c2)c1)N1CCC(F)(F)CC1 [MF-DH-453, (1-(5-(1H-tetrazol-5-yl)pyridin-3-yl)-1H-pyrrolo[2,3-b]pyridin-5-yl)(4,4-difluoropiperidin-1-yl)methanone]
[3]
  MLM + NADPH (% remaining at 45 min): 116%
Solubility at pH 7.4; [4]
  solubility: > 100 µM
15-PGDH/HPGD; read-out: hPGDH: Average IC50
  IC50: < 100 nM

## O=C(c1cnc2c(ccn2-c2cncc(-c3noc(=O)[nH]3)c2)c1)N1CCC(F)(F)CC1 [MF-DH-454, 3-(5-(5-(4,4-difluoropiperidine-1-carbonyl)-1H-pyrrolo[2,3-b]pyridin-1-yl)pyridin-3-yl)-1,2,4-oxadiazol-5(4H)-one]
[3]
  MLM + NADPH (% remaining at 45 min): 92%
Solubility at pH 7.4; [4]
  solubility: > 100 µM
15-PGDH/HPGD; read-out: hPGDH: Average IC50
  IC50: < 100 nM

## O=C(Nc1cncc(-n2ccc3cc(C(=O)N4CCC(F)(F)CC4)cnc32)c1)c1ccno1 [MF-DH-458]
[3]
  MLM + NADPH (% remaining at 45 min): 68%
Solubility at pH 7.4; [4]
  solubility: 62 µM (≈ 28.1 µg/mL)
15-PGDH/HPGD; read-out: hPGDH: Average IC50
  IC50: < 100 nM

## COc1ccc(-n2cnc3cc(C(=O)N4CCC(F)(F)CC4)cnc32)cc1 [drawing 191]
Solubility at pH 7.4; [5]
  solubility: 140 µM (≈ 52.1 µg/mL)

## COc1ccc(-n2cnc3cc(C(=O)N4CCC(F)CC4)cnc32)cc1 [drawing 192]
Solubility at pH 7.4; [5]
  solubility: 140 µM (≈ 49.6 µg/mL)

## COc1ccc(-n2cnc3cc(C(=O)N4CCCCC4)cnc32)cc1 [drawing 193]
Solubility at pH 7.4; [5]
  solubility: 160 µM (≈ 53.8 µg/mL)

## O=C(c1ccc2c(c1)ncn2-c1cccc(Cl)c1)N1CCCCC1 [drawing 211]
Solubility at pH 7.4; [5]
  solubility: 120 µM (≈ 40.8 µg/mL)

## O=C(c1ccc2c(c1)ncn2-c1cccc(Cl)c1)N1CC2(CCC2)C1 [drawing 212]
Solubility at pH 7.4; [5]
  solubility: 16 µM (≈ 5.63 µg/mL)

## O=C(c1ccc2c(c1)ncn2-c1cccc(Cl)c1)N1CC2CCCC2C1 (stereo not drawn) [drawing 215]
Solubility at pH 7.4; [5]
  solubility: 33 µM (≈ 12.1 µg/mL)

## O=C(c1cnc2c(ccn2-c2cccc(Cl)c2)c1)N1CCCCC1 [drawing 216]
Solubility at pH 7.4; [5]
  solubility: 21 µM (≈ 7.14 µg/mL)
15-PGDH/HPGD; PGDH inhibitors with a 6-5 ring core, read-out: hPGDH: IC50
  IC50: 1.5 nM

## COc1ccc(-n2c(C3CC3)nc3cc(C(=O)N4CCCCC4)ccc32)cc1 [drawing 218]
Solubility at pH 7.4; [5]
  solubility: 45 µM (≈ 16.9 µg/mL)

## O=C(c1cnc2c(c1)ncn2-c1cccc(Cl)c1)N1CCCCC1 [drawing 219]
Solubility at pH 7.4; [5]
  solubility: 150 µM (≈ 51.1 µg/mL)

## O=C(c1cnc2c(-c3cccc(Cl)c3)cnn2c1)N1CCCCC1 [drawing 220]
Solubility at pH 7.4; [5]
  solubility: < 5 µM

## O=C(c1ccc2c(c1)nnn2-c1cccc(Cl)c1)N1CCCCC1 [drawing 221]
Solubility at pH 7.4; [5]
  solubility: 68 µM (≈ 23.2 µg/mL)

## COc1ccc(-n2cnc3cc(C(=O)N4CCC(F)CC4)ccc32)cc1 [drawing 222]
Solubility at pH 7.4; [5]
  solubility: 160 µM (≈ 56.5 µg/mL)

## COc1ccc(-n2cnc3cc(C(=O)N4CCCCC4)ccc32)cc1 [drawing 223]
Solubility at pH 7.4; [5]
  solubility: 150 µM (≈ 50.3 µg/mL)

## O=C(c1ccc2c(cnn2-c2cccc(Cl)c2)c1)N1CCCCC1 [drawing 224]
Solubility at pH 7.4; [5]
  solubility: 6.9 µM (≈ 2.34 µg/mL)

## O=C(c1ccc2c(ccn2-c2cccc(Cl)c2)c1)N1CCCCC1 [drawing 225]
Solubility at pH 7.4; [5]
  solubility: < 5 µM

## COc1ccccc1C(=O)N(C)c1ccc(C(=O)N2CCCCC2)cc1 [drawing 229]
Solubility at pH 7.4; [6]
  solubility: 160 µM (≈ 56.4 µg/mL)

## O=C(c1ccc(COc2ccccc2Cl)cc1)N1CCCCC1 [drawing 230]
Solubility at pH 7.4; [6]
  solubility: 38 µM (≈ 12.5 µg/mL)

## COc1ccccc1C(=O)Nc1ccc(C(=O)N2CCCCC2)cc1 [drawing 231]
Solubility at pH 7.4; [6]
  solubility: 29 µM (≈ 9.81 µg/mL)

## COc1ccccc1NC(=O)c1ccc(C(=O)N2CCCCC2)cc1 [drawing 232]
Solubility at pH 7.4; [6]
  solubility: 88 µM (≈ 29.8 µg/mL)

## O=C(c1ccc(COc2ccccc2Br)cc1)N1CCCCC1 [drawing 233]
Solubility at pH 7.4; [6]
  solubility: 6.3 µM (≈ 2.36 µg/mL)
